This is an account of results in PubChem BioAssay (NCI).

Several values for one entry are separate records, joined by “and”; a condition that tells them apart may be missing. Identical values can stand only once.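 96-well plates; 48 h exposure; 5 concentrations. Endpoints by linear interpolation between flanking doses. Not reached: highest tested concentration assigned. Here, GI50 denotes the concentration required for 50% inhibition of growth. TGI: concentration producing complete growth inhibition.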

Some test systems named below: ACHN renal; CAKI-1 renal; KM12 colon; M14 melanoma; MOLT-4 leukemia; SK-OV-3 ovarian; SN12C renal; SR leukemia; PC-3 prostate.
Holding throughout (assay): NCI-60 cell line screen, 48 h

As to `O=C1C2C(C(=O)N1c1ccccc1)C1([N+](=O)[O-])C=C3c4ccccc4N(C(=O)c4ccccc4)C32C2C(=O)N(c3ccccc3)C(=O)C21` (stereo unspecified), the TGI in the experiment with ACHN renal, in the experiment on CAKI-1 renal, in the experiment on KM12 colon, with M14 melanoma, in the experiment on MOLT-4 leukemia and in the experiment on SK-OV-3 ovarian was over 100 µM each time. Also, the TGI in the experiment with SN12C renal and with SR leukemia was over 100 µM each time.
On to `COC(=O)C12OCC34C(CC5C(C)C6=CC(=O)OC6=CC5(C)C3C(O)C1O)OC(=O)C(O)C24` (stereo unspecified), for which the GI50 was 0.486 µM with ACHN renal; 0.331 µM with KM12 colon; 0.177 µM and 0.767 µM with M14 melanoma; 0.0314 µM in the experiment on MOLT-4 leukemia; 0.328 µM in the experiment with SK-OV-3 ovarian; 0.416 µM in the experiment with SN12C renal. The TGI with ACHN renal was 17.1 µM; in the experiment with CAKI-1 renal, 30 µM; with KM12 colon, 12.5 µM; in the experiment with M14 melanoma, 0.504 µM and 2.22 µM; in the experiment with MOLT-4 leukemia, 0.375 µM and 1.27 µM; in the experiment with SK-OV-3 ovarian, 24.6 µM. Also, the TGI in the experiment with SN12C renal was 34.1 µM.
On to `COc1ccc(/C=C2\CCC(CCN(C)C)(C3=CCCC3)C2=O)cc1Br` (stereo unspecified), for which the TGI was found to be 21.5 µM with ACHN renal; 21.2 µM in the experiment with CAKI-1 renal; 14.9 µM with KM12 colon; 3.34 µM with M14 melanoma; 6.01 µM in the experiment with MOLT-4 leukemia; 22 µM in the experiment on SN12C renal. Also, in the experiment on SR leukemia, the TGI amounted to 5.06 µM.
Regarding `O=C(N/N=C1\C(=O)N(c2nccs2)C(=O)C(=O)C1c1nc2ccccc2s1)c1ccccc1O` (stereo unspecified), the TGI in the experiment with ACHN renal, in the experiment on CAKI-1 renal, with KM12 colon, in the experiment on M14 melanoma, with SK-OV-3 ovarian and in the experiment with SN12C renal was over 100 µM in each case.
Regarding `CCc1cc(CCC(=O)Nc2ccccc2[N+](=O)[O-])[nH]c(=S)n1`, the TGI in the experiment on ACHN renal, with KM12 colon, in the experiment on M14 melanoma, in the experiment on MOLT-4 leukemia, with SK-OV-3 ovarian and in the experiment on SR leukemia was over 100 µM in each case.
Consider `CCOC(=O)C(CC/C=C\c1ccccc1)N1CCC[C@H]1C(=O)OC` (stereo partly specified), for which the TGI in the experiment on ACHN renal, in the experiment with CAKI-1 renal, in the experiment on KM12 colon, in the experiment with M14 melanoma, in the experiment on MOLT-4 leukemia and in the experiment on SK-OV-3 ovarian was over 100 µM each time. For the same compound, the TGI in the experiment on SN12C renal and in the experiment with SR leukemia was over 100 µM each time.
On to `CCOC(=O)c1cnc2sc3ccc4ccccc4c3n2c1=O`, for which the TGI with ACHN renal is over 100 µM; with CAKI-1 renal it was 99.4 µM; in the experiment with KM12 colon, over 100 µM; with M14 melanoma, over 100 µM; in the experiment on MOLT-4 leukemia, over 100 µM; in the experiment on SK-OV-3 ovarian it was over 100 µM. In addition, the TGI in the experiment with SN12C renal and in the experiment on SR leukemia was over 100 µM in each case.
As for `O=C(CCn1[nH]c(=O)c(Cl)c(Cl)c1=O)NNC(=O)C[n+]1ccccc1`, the TGI in the experiment with ACHN renal, with CAKI-1 renal, in the experiment with KM12 colon, in the experiment on M14 melanoma, in the experiment with MOLT-4 leukemia and with SK-OV-3 ovarian was over 100 µM throughout. In the experiment on SN12C renal, this compound displayed a TGI of over 100 µM.
Turning to `Cc1cccc2c1CCC21OC(=O)c2c1ccc1ccccc21` (stereo unspecified), the TGI in the experiment with ACHN renal was over 100 µM; in the experiment on CAKI-1 renal it was over 100 µM; in the experiment with KM12 colon it was over 100 µM; with M14 melanoma, 64.8 µM; in the experiment on MOLT-4 leukemia it was 79.8 µM; with SK-OV-3 ovarian it was over 100 µM. The TGI in the experiment on SN12C renal is over 100 µM; with SR leukemia, 85.3 µM.
As to `CC1=C(/C=C/C(C)=C/C=C/C(C)=C/C(=O)O)C(C)(C)CCC1`, the TGI in the experiment with ACHN renal was 75.9 µM; with CAKI-1 renal it was over 93.2 µM; in the experiment on KM12 colon, 60.2 µM; with M14 melanoma, 71.5 µM; in the experiment with MOLT-4 leukemia it was 69.1 µM; with PC-3 prostate, over 100 µM. The TGI is over 100 µM in the experiment on SK-OV-3 ovarian, 72.1 µM in the experiment on SN12C renal and over 87.4 µM with SR leukemia.
Consider `O=C(CC(=O)c1cccc2ccccc12)C(=O)NC1C2CC3CC(C2)CC1C3` (stereo unspecified), for which the TGI in the experiment on ACHN renal, in the experiment on CAKI-1 renal, with KM12 colon, with M14 melanoma, in the experiment with MOLT-4 leukemia and in the experiment with SK-OV-3 ovarian was over 100 µM each time. The TGI with SN12C renal was over 100 µM.
`CSc1snc2sc3c(Cl)nnnc3c12`: the TGI with ACHN renal came to 23.3 µM; in the experiment with CAKI-1 renal it was 15.9 µM; in the experiment on KM12 colon, 30 µM; with M14 melanoma, 26.3 µM; in the experiment with MOLT-4 leukemia, 11.4 µM; in the experiment on SK-OV-3 ovarian it was 33.3 µM. Further, the TGI with SN12C renal turned out to be 28.7 µM.
With `Cc1cccc(C(C)(C)C)c1NC(=O)CCc1nc(=S)[nH][nH]1`, the TGI in the experiment with ACHN renal, in the experiment on CAKI-1 renal, in the experiment with KM12 colon, in the experiment with M14 melanoma, with MOLT-4 leukemia and with SK-OV-3 ovarian was over 100 µM in each case. In the experiment with SN12C renal, this compound had a TGI of over 100 µM.
For `N#Cc1cc(S(=O)(=O)Nc2nnc(-c3ccccc3)c(-c3ccccc3)n2)c(SCc2ccccc2)cc1Cl`, the GI50 in the experiment with ACHN renal was 21.5 µM; in the experiment with CAKI-1 renal, 21.3 µM; in the experiment with KM12 colon, 19.2 µM; in the experiment with M14 melanoma, 27.4 µM; in the experiment with MOLT-4 leukemia it was 9.82 µM; in the experiment with PC-3 prostate it was 20 µM. Besides, the values for the GI50 with SK-OV-3 ovarian, in the experiment on SN12C renal and in the experiment on SR leukemia were 23.4 µM, 20.3 µM and 27.5 µM, respectively. Further, the TGI in the experiment with ACHN renal is 42.6 µM; with CAKI-1 renal, 42.1 µM; in the experiment on KM12 colon, 42.5 µM; with M14 melanoma, 80.4 µM; in the experiment on MOLT-4 leukemia, over 100 µM; with PC-3 prostate, 43.2 µM. The TGI is 57.4 µM with SK-OV-3 ovarian, 47 µM in the experiment with SN12C renal and over 100 µM in the experiment with SR leukemia.
Regarding `COc1ccc2oc(C(=O)O)c3c2c1CCC3CCC(=O)O` (stereo unspecified), the TGI in the experiment on ACHN renal is over 100 µM; in the experiment with KM12 colon, over 100 µM; in the experiment on M14 melanoma, over 1 µM; with MOLT-4 leukemia, over 100 µM; with SK-OV-3 ovarian, over 100 µM; with SN12C renal, over 100 µM. The same compound yielded a TGI with SR leukemia of over 100 µM.
